Values of other authors in PMC12910647, “Tumor-Targeted Delivery of an EGFR Inhibitor Prodrug via Site-Specific Albumin Conjugation” (Journal of Medicinal Chemistry, 2026).

Design: method as in not given
Conditions: in mice, reported value; ref not given

C=CC(=O)Nc1cc(Nc2nccc(-c3cn(C)c4ccccc34)n2)c(OC)cc1N(C)CCN(C)C [osimertinib]
maximum tolerated dose (MTD): 25 mg/kg
